ChEMBL document CHEMBL1142539, “Double edge redox-implications for the interaction between endogenous thiols and copper ions: In vitro studies” (Bioorg Med Chem, 2008)
Active and inactive are the calls of the source. The rule behind the calls is not given here.

Columns and labels:
[1] = Antioxidant activity assessed as reducing capacity of DTNB at 20 uM after 30 mins in presence of Cu2++; format: functional; design: scale not given: the % may be the effect or the level left
[2] = Antioxidant activity assessed as reducing capacity of Iodine solution at 0.25mM after 30 mins in presence of Cu2++; format: functional; design: scale not given: the % may be the effect or the level left
[3] = Antioxidant activity assessed as ABTS radical scavenging activity at 4 uM after 30 mins in presence of Cu2++; format: functional
[4] = tested on: Radical scavenging activity; test: Antioxidant activity assessed as DPPH radical scavenging activity at 36 uM after 30 mins in presence of Cu2++; format: functional
[5] = Antioxidant activity assessed as reducing capacity of DTNB at 20 uM after 60 mins in presence of Cu2++; format: functional
[6] = Antioxidant activity assessed as reducing capacity of Iodine solution at 0.25 mM after 60 mins in presence of Cu2++; format: functional
[7] = Antioxidant activity assessed as reducing capacity of Iodine solution at 0.25 mM after 120 mins in presence of Cu2++; format: functional
[8] = Induction of ascorbic acid oxidation preincubated for 3 mins in presence of Cu2++; format: physicochemical; design: concentration or dose not given beside the values; conditions: 0.05 h
[9] = Induction of ascorbic acid oxidation preincubated for 30 mins in presence of Cu2++; format: physicochemical; design: concentration or dose not given beside the values; conditions: 0.5 h
[10] = Induction of ascorbic acid oxidation preincubated for 60 mins in presence of Cu2++; format: physicochemical; design: concentration or dose not given beside the values; conditions: 1 h
[11] = Induction of ascorbic acid oxidation preincubated for 300 mins in presence of Cu2++; format: physicochemical; design: concentration or dose not given beside the values; conditions: 5 h
[12] = Effect on CU2+-mediated superoxide-dependent cytochrome c reduction at 10 to 30 uM; format: physicochemical
[13] = Effect on CU2+-mediated superoxide-dependent lucigenin reduction by chemiluminescence assay at 10 to 30 uM; format: physicochemical
[14] = Antioxidant activity assessed as ABTS radical scavenging activity after 30 mins in absence of Cu2+; format: functional
[15] = tested on: Radical scavenging activity; test: Antioxidant activity assessed as DPPH radical scavenging activity after 40 mins in absence of Cu2+; format: functional
[16] = Antioxidant activity assessed as ABTS radical scavenging activity at 4 uM after 3 mins in presence of Cu2+; format: functional
[17] = tested on: Radical scavenging activity; test: Antioxidant activity assessed as DPPH radical scavenging activity at 36 uM after 3 mins in presence of Cu2++; format: functional

SMILES	Activity [1]	Activity [2]	Activity [3]	Activity [4]	Activity [5]	Activity [6]	Activity [7]	Activity [8]	Activity [9]	Activity [10]	Activity [11]	Activity [12]	Activity [13]	Activity [14]	Activity [15]	Activity [16]	Activity [17]
N[C@@H](CS)C(=O)NCC(=O)O	0%	20%	33%	88%	Active	Active	inactive	79.8%	92.28%	94.31%	94.33%	Active	Active	Dose-dependent effect	Dose-dependent effect	Active	Active
N[C@@H](CCC(=O)N[C@@H](CS)C(=O)O)C(=O)O	26%	24%	29%	54%	–	–	–	81.4%	87.4%	89.6%	97.6%	Active	–	Dose-dependent effect	Dose-dependent effect	Active	Active
N[C@@H](CS)C(=O)O [CYSTEINE]	24%	23%	44%	92%	–	–	–	74.35%	77.34%	80.35%	80.36%	Active	–	Dose-dependent effect	Dose-dependent effect	Active	Active
N[C@@H](CCC(=O)N[C@@H](CS)C(=O)NCC(=O)O)C(=O)O [GLUTATHIONE]	36%	31%	55%	76%	–	–	–	81.3%	83.2%	84.2%	85.4%	Active	Active	Dose-dependent effect	Dose-dependent effect	Active	Active
N[C@@H](CCS)C(=O)O [L-HOMOCYSTEINE]	40%	30%	31%	72%	–	–	–	81.1%	84.1%	86.1%	85.3%	Active	Active	Dose-dependent effect	Dose-dependent effect	Active	Active
